These results are taken from US12403121B2, “Anticancer rocaglamide derivatives” (priority 2018, dated 2025).

For series [1], the system named is Ben-Men-1 NF2−/− meningioma cells. Briefly: 3-day resazurin cell proliferation assay, Ben-Men-1 meningioma cells. Particulars: Homo sapiens, 72 h, read-out: IC50 (nM) Ben-Men-1 NF2−/− meningioma cells. It is filed as cell-based, human. The method, then:
(§1) The human MPNST cell lines, ST8814, STS26T, S462, T265, and luciferase-expressing ST8814-Luc, the human NF2-deficient meningioma cell line Ben-Men-1, the NJ2 mouse schwannoma cell line Sch10545, and primary human Schwann cells were propagated as previously described. Oblinger et al., Neuro-Oncol., 18:1265-1277 (2016). The Ewing sarcoma cell line A673 and the osteosarcoma cell lines, 143B and MG-63, were grown in Dulbecco's Modified Eagle's (DME) medium (Millipore-Sigma) supplemented with 10% fetal bovine serum (FBS; Atlanta Biological). The silvestrol-sensitive 697 and silvestrol-resistant 697-R pre-B acute lymphoblastic leukemia cells (Gupta et al., AAPS J., 13:357-364 (2011)), the Ewing sarcoma cell line TC32, the osteosarcoma cell lines, Saos2 and OS17, and the rhabdomyosarcoma cell line RD were cultivated in RPMI 1640 medium (Millipore-Sigma) plus 10% FBS.
(§2) Actively-growing cells were seeded in 96-well plates (Sarstedt) at 2,000 cells/well for Ben-Men-1 and RD cells, 30,000 cells/well for 697 and 697-R cells, and 4,000 cells/well for all other cell lines. The following day, cells were treated with various concentrations of each compound or and 0.05% of DMSO as the control for six days for MG-63 cells or three days for all remaining cell lines. Cell proliferation was assessed using resazurin assays and the IC50 value calculated. Cell cycle analysis was performed accordingly. Burns et al., Cancer Res., 73:792-803 (2013).
(§3) To search for compounds with better drug-like properties, the inventors conducted a side-by-side comparison of ten rocaglates lacking the dioxanyl ring with silvestrol for growth-inhibitory activity in a panel of MPNST, schwannoma, and meningioma cell lines, which they had previously shown to be sensitive to the antiproliferative action of silvestrol. […] The average IC50 value of each rocaglate was determined by 3-day resazurin proliferation assays. […] Further structure and activity comparison discerned some positions on the cyclopenta[b]benzofuran scaffold that affected the antiproliferative activity of rocaglates.
A general note: Resazurin is reduced to fluorescent resorufin, in cell work by metabolically active cells.

Series [2] deals with 697 pre-B leukemia cells. Briefly: Cell proliferation, parental silvestrol-sensitive 697 leukemic cells. The conditions noted are these: 72 h, 3 days treatment. It is filed as cell-based. The method, then: (§4) FIGS. 3A-3C provide graphs showing that, unlike silvestrol, DDR and Roe inhibits proliferation of MDR1-overexpressing 697-R leukemic cells at IC50 values similar to parental silvestrol-sensitive 697 cells. Cell proliferation was measured on 697-R and parental 697 pre-B leukemia cells treated for 3 days with various concentrations of silvestrol (A), DDR (B), and Roc (C). Each treatment was performed in six replicates, and each experiment was repeated twice. Shown are representative dose-response growth inhibition curves from experiments for all three drugs that were run in parallel. The IC50 values for individual growth curves are shown in the graph insets.
(§5) The human MPNST cell lines, ST8814, STS26T, S462, T265, and luciferase-expressing ST8814-Luc, the human NF2-deficient meningioma cell line Ben-Men-1, the NJ2 mouse schwannoma cell line Sch10545, and primary human Schwann cells were propagated as previously described. Oblinger et al., Neuro-Oncol., 18:1265-1277 (2016). […]
(§6) Actively-growing cells were seeded in 96-well plates (Sarstedt) at 2,000 cells/well for Ben-Men-1 and RD cells, 30,000 cells/well for 697 and 697-R cells, and 4,000 cells/well for all other cell lines. […] Cell proliferation was assessed using resazurin assays and the IC50 value calculated. […]

The subject of series [3] is STS26T NF1+/+ MPNST cells. Briefly: 3-day resazurin cell proliferation assay, STS26T MPNST cells. The conditions noted are these: Homo sapiens, STS-26T, 72 h, read-out: IC50 (nM) STS26T NF1+/+ MPNST cells. It is filed as cell-based, human. The method, then:
as §1, §2, §3

Series [4] has as its system 697-R leukemic cells (overexpress MDR1/Pgp). Briefly: Cell proliferation, MDR1-overexpressing silvestrol-resistant 697-R leukemic cells. Particulars: MDR1, 72 h, read-out: IC50 in 697-R cells. It is filed as cell-based. The method, then:
as §4, §5, §6

For series [5] the following is noted: Saradhi et al. 2011; cited from earlier work.
The test system of series [6] is ST8814 NF1−/− MPNST cells. Nature of the series: 3-day resazurin cell proliferation assay, ST8814 MPNST cells. It is filed as cell-based, human. Particulars: Homo sapiens, ST88-14, 72 h, read-out: IC50 (nM) ST8814 NF1−/− MPNST cells. As to the method:
as §1, §2, §3

Series [7] addresses multidrug resistance 1 (MDR1) transporter (Homo sapiens, UniProt P08183). Particulars: cited from earlier work.
The test system of series [8] is Sch10545 Nf2−/− schwannoma cells. Briefly: 3-day resazurin cell proliferation assay, Sch10545 schwannoma cells. It is filed as cell-based, mouse. The conditions noted are these: Mus musculus, 72 h, read-out: IC50 (nM) Sch10545 Nf2−/− schwannoma cells. The method, then:
as §1, §2, §3

The conditions of series [9]: Kinghorn et al. 2016 and NCI Developmental Therapeutics Program study, same conditions; cited from earlier work.

pIC50: −log10 of the molar value.

Consider `COC(=O)[C@H]1[C@@H](O)[C@@]2(O)c3c(OC)cc(O[C@@H]4O[C@@H]([C@H](O)CO)CO[C@H]4OC)cc3O[C@@]2(c2ccc(OC)cc2)[C@@H]1c1ccccc1` [Silvestrol, reference compound], for which the IC50 in [1] amounted to 10 nM; in [3], 10 nM; in series [6], 40 nM; in series [8], 70 nM. Moreover, the figures for the pIC50 in [2] and in series [4] were 8.46 and 7.59, respectively. Besides, in series [5], the oral bioavailability entry is “less than 2%”. The “substrate for the MDR1 transporter” value in series [7] is “substrate”. Also, the “pulmonary toxicity in dogs” value in series [9] is reported as “unexpected pulmonary toxicity”.
